Experimental data published in patent US20230355558A1 (priority 2022, published 2023).

Test system: SARS-CoV-2
Format: cell-based

NCC1CCC(C(=O)[O][Ca][O]C(=O)C2CCC(CN)CC2)CC1 (stereo not shown) [Ca-TA, Calcium bis-tranexamate] was tested, and the “antiviral efficacy against SARS-CoV-2 infections and its emerging variants” value was “desired antiviral efficacy”.
